Data from article PMC6321168, “Comparative Study on Excretive Characterization of Main Components in Herb Pair Notoginseng-Safflower and Single Herbs by LC–MS/MS” (Pharmaceutics, 2018).

Test: Fecal excretion study in rats after oral NS, SF or CNS (LC–MS/MS)
Type: in vivo
Settings: rat feces
Description: The animal room was set at constant temperature of 20 ± 2 °C with humidity of 50 ± 20% and 12/12 h light/dark cycle.
Eighteen male rats were fasted for 12 h before starting the experiment. The rats were divided into three groups at random (n = 6) and received NS (60 mg/kg), SF (50 mg/kg), and NS (60 mg/kg) + SF (50 mg/kg), respectively, by oral gavage. The rats were placed in separate metabolic cages. The urine samples were collected at 0–2, 2–4, 4–6, 6–8, 8–12, 12–24, 24–36, 36–48, 48–72, 72–96, and 96–120 h. The feces samples were collected at 0–4, 4–8, 8–12, 12–24, 24–36, 36–48, 48–72, 72–96, and 96–120 h. The urine volume was recorded and the dry feces were measured for each collection period. Samples were stored at −80 °C until analysis.
Feces samples were homogenized in ultrapure water (1 g/15 mL), soaked for 30 min, ultrasonically extracted for 30 min and centrifuged at 9000 rpm for 8 min. An aliquot of 200 μL feces water extraction solution was mixed with 10 μL of IS and then extracted three times with water-saturated n-BuOH (150 μL). The upper organic phase was combined and evaporated to dryness using a ZLS-2 vacuum centrifugal concentrator. The residue was treated as the urine sample and a 1-μL aliquot was injected for LC–MS analysis.
Ultra fast liquid chromatography (UFLC) analysis was performed using a Shimadzu UFLC system (DGU-20A3R Degasser; LC-20AD pump; SIL-20AXR Autosampler; CTO-20AC Column Oven) (Nakagyo-Ku, Koyoto, Japan). […] Because of the different endogenous substances in the urine and feces samples, different elution gradients were used to alleviate the matrix effects for the analytes.
The mass spectrometric detection was performed on an ABSciex 4500 Qtrap mass spectrometer (ABSciex, Foster City, CA, USA) equipped with a negative electrospray ionization (ESI) interface using multiple reaction monitoring (MRM). The MS parameters were optimized under the selected ion monitoring conditions as follows: curtain gas, 35 psi; ionspray voltage, 4500 V; turbo gas temperature, 450 °C; GS1, 45 psi; GS2, 45 psi. All data were acquired and analyzed by Analyst software (Versions 1.6.2) from ABSciex.
The accumulative excretion percentage was calculated for each analyte as follows. Excretion at time (t) = [concentration of the analyte (ng/mL) at t] × total urine (or feces) volume (mL) at t. The cumulative excretion up to time t (mg) was expressed as a percent (%) cumulative excretion by dividing by the total amount of the analyte ingested (mg): % Cumulative Excretion = 100 × (Σt excretiont) total ingested.

With CC(C)=CCC[C@](C)(O[C@@H]1O[C@H](CO)[C@@H](O)[C@H](O)[C@H]1O)[C@H]1CC[C@]2(C)[C@@H]1[C@H](O)C[C@@H]1[C@@]3(C)CC[C@H](O)C(C)(C)[C@@H]3[C@@H](O[C@@H]3O[C@H](CO)[C@@H](O)[C@H](O)[C@H]3O)C[C@]12C [ginsenoside Rg1] the concentration at 4 h (male, Sprague Dawley, oral CNS 110 mg/kg, 4 h) was 1100 ± 1520 ng/mL, the concentration at 8 h (male, Sprague Dawley, oral CNS 110 mg/kg, 8 h) was 1710 ± 54 ng/mL and the concentration at 12 h (male, Sprague Dawley, oral CNS 110 mg/kg, 12 h) was 1110 ± 221 ng/mL. For the same compound, the concentration at 24 h (male, Sprague Dawley, oral CNS 110 mg/kg, 24 h) was 980 ± 138 ng/mL, the concentration at 36 h (male, Sprague Dawley, oral CNS 110 mg/kg, 36 h) was 959 ± 40 ng/mL and the concentration at 48 h (male, Sprague Dawley, oral CNS 110 mg/kg, 48 h) was 943 ± 49 ng/mL. The concentration at 72 h (male, Sprague Dawley, oral CNS 110 mg/kg, 72 h) was 324 ± 249 ng/mL, the concentration at 96 h (male, Sprague Dawley, oral CNS 110 mg/kg, 96 h) was 24 ± 24 ng/mL and the concentration at 4 h (male, Sprague Dawley, oral NS 60 mg/kg, 4 h) was 1510 ± 256 ng/mL. For the same compound, the concentration at 8 h (male, Sprague Dawley, oral NS 60 mg/kg, 8 h) was 473 ± 16 ng/mL, the concentration at 12 h (male, Sprague Dawley, oral NS 60 mg/kg, 12 h) was 1090 ± 88 ng/mL and the concentration at 24 h (male, Sprague Dawley, oral NS 60 mg/kg, 24 h) was 2040 ± 55 ng/mL. For the same compound, the concentration at 36 h (male, Sprague Dawley, oral NS 60 mg/kg, 36 h) was 2020 ± 54 ng/mL, the concentration at 48 h (male, Sprague Dawley, oral NS 60 mg/kg, 48 h) was 2080 ± 47 ng/mL and the concentration at 72 h (male, Sprague Dawley, oral NS 60 mg/kg, 72 h) was 116 ± 8 ng/mL. It also gave a concentration at 96 h (male, Sprague Dawley, oral NS 60 mg/kg, 96 h) of 23 ± 1 ng/mL, a concentration at 120 h (male, Sprague Dawley, oral NS 60 mg/kg, 120 h) of 22 ± 2 ng/mL and an Accumulative excretion amount (oral CNS 110 mg/kg, 4 h) of 14.286 ± 20.907 µg. For the same compound, the Accumulative excretion percentage (oral CNS 110 mg/kg, 4 h) was 0.474±0.681%, the Excretion amount (oral CNS 110 mg/kg, 4 h) was 14.286 ± 20.907 µg and the Accumulative excretion amount (oral CNS 110 mg/kg, 8 h) was 39.952 ± 21.244 µg. The Accumulative excretion percentage (oral CNS 110 mg/kg, 8 h) was 1.303±0.695%, the Accumulative excretion amount (oral CNS 110 mg/kg, 12 h) was 56.860 ± 20.559 µg and the Excretion amount (oral CNS 110 mg/kg, 12 h) was 16.908 ± 6.636 µg. The Accumulative excretion amount (oral CNS 110 mg/kg, 24 h) was 71.363 ± 24.096 µg, the Accumulative excretion percentage (oral CNS 110 mg/kg, 24 h) was 2.331±0.796% and the Excretion amount (oral CNS 110 mg/kg, 24 h) was 14.504 ± 4.143 µg. It also gave an Accumulative excretion amount (oral CNS 110 mg/kg, 36 h) of 85.729 ± 27.211 µg, an Accumulative excretion percentage (oral CNS 110 mg/kg, 36 h) of 2.802±0.894% and an Excretion amount (oral CNS 110 mg/kg, 36 h) of 14.365 ± 4.335 µg. For the same compound, the Accumulative excretion amount (oral CNS 110 mg/kg, 48 h) was 99.901 ± 30.374 µg, the Accumulative excretion percentage (oral CNS 110 mg/kg, 48 h) was 3.265±0.994% and the Excretion amount (oral CNS 110 mg/kg, 48 h) was 14.173 ± 4.533 µg. It also gave an Accumulative excretion amount (oral CNS 110 mg/kg, 72 h) of 105.113 ± 30.466 µg, an Accumulative excretion percentage (oral CNS 110 mg/kg, 72 h) of 3.431±0.996% and an Excretion amount (oral CNS 110 mg/kg, 72 h) of 5.212 ± 4.367 µg. For the same compound, the Accumulative excretion amount (oral CNS 110 mg/kg, 96 h) was 105.509 ± 30.482 µg, the Accumulative excretion percentage (oral CNS 110 mg/kg, 96 h) was 3.441±0.996% and the Excretion amount (oral CNS 110 mg/kg, 96 h) was 0.396 ± 0.402 µg. For the same compound, the Accumulative excretion amount (oral CNS 110 mg/kg, 120 h) was 105.509 ± 30.482 µg, the Accumulative excretion percentage (oral CNS 110 mg/kg, 120 h) was 3.442±0.994% and the Accumulative excretion amount (oral NS 60 mg/kg, 4 h) was 21.063 ± 5.410 µg. For the same compound, the Accumulative excretion percentage (oral NS 60 mg/kg, 4 h) was 0.612±0.145%, the Excretion amount (oral NS 60 mg/kg, 4 h) was 21.063 ± 5.410 µg and the Accumulative excretion amount (oral NS 60 mg/kg, 8 h) was 27.855 ± 7.375 µg. The Accumulative excretion percentage (oral NS 60 mg/kg, 8 h) was 0.798±0.216%, the Excretion amount (oral NS 60 mg/kg, 8 h) was 6.792 ± 2.122 µg and the Accumulative excretion percentage (oral NS 60 mg/kg, 12 h) was 1.244±0.343%. For the same compound, the Excretion amount (oral NS 60 mg/kg, 12 h) was 15.587 ± 4.879 µg, the Accumulative excretion amount (oral NS 60 mg/kg, 24 h) was 72.682 ± 20.662 µg and the Accumulative excretion percentage (oral NS 60 mg/kg, 24 h) was 2.071±0.592%. It also gave an Excretion amount (oral NS 60 mg/kg, 24 h) of 29.239 ± 8.754 µg, an Accumulative excretion amount (oral NS 60 mg/kg, 36 h) of 101.659 ± 29.524 µg and an Accumulative excretion percentage (oral NS 60 mg/kg, 36 h) of 2.904±0.845%. For the same compound, the Excretion amount (oral NS 60 mg/kg, 36 h) was 28.977 ± 8.942 µg, the Accumulative excretion amount (oral NS 60 mg/kg, 48 h) was 131.700 ± 39.092 µg and the Accumulative excretion percentage (oral NS 60 mg/kg, 48 h) was 3.751±1.111%. For the same compound, the Excretion amount (oral NS 60 mg/kg, 48 h) was 30.041 ± 9.594 µg, the Accumulative excretion amount (oral NS 60 mg/kg, 72 h) was 133.372 ± 39.629 µg and the Accumulative excretion percentage (oral NS 60 mg/kg, 72 h) was 3.801±1.132%. For the same compound, the Excretion amount (oral NS 60 mg/kg, 72 h) was 1.673 ± 0.554 µg, the Accumulative excretion percentage (oral NS 60 mg/kg, 96 h) was 3.814±1.133% and the Excretion amount (oral NS 60 mg/kg, 96 h) was 0.327 ± 0.104 µg. The Accumulative excretion percentage (oral NS 60 mg/kg, 120 h) was 3.824±1.132% and the Excretion amount (oral NS 60 mg/kg, 120 h) was 0.315 ± 0.110 µg.
